Test results published in EPA's ToxRefDB 2.

How the values were obtained:
mouse [1] = conditions: Subchronic oral toxicity in rodents, b6c3f1, Feed, dose end: 13 week, group: systemic
mouse [2] = conditions: Subchronic dermal toxicity, b6c3f1, Topical, dose end: 13 week, group: systemic, systemic / pathology gross / sperm measure / sperm count
rat [3] = conditions: Subchronic dermal toxicity, fischer, Topical, dose end: 13 week, group: systemic, systemic / organ weight / kidney / relative to body weight
rat [4] = conditions: Subchronic oral toxicity in rodents, fischer, Feed, dose end: 13 week
rat [5] = conditions: Subchronic oral toxicity in rodents, fischer, Gavage/Intubation, dose end: 14 week, group: systemic
mouse [6] = conditions: Subchronic oral toxicity in rodents, b6c3f1, Gavage/Intubation, dose end: 14 week, group: systemic, systemic / hematology / erythrocyte (rbc) count differential / erythrocyte (rbc) + systemic / hematology / hematocrit (hct) / hematocrit (…
rat [7] = conditions: Subchronic oral toxicity in rodents, other, Feed, dose end: 90 day, group: systemic, systemic / pathology gross / kidney / enlarged + systemic / pathology gross / liver / enlarged + systemic / urinalysis / glucose / glucose…
dog [8] = conditions: Combined chronic toxicity/carcinogenicity; beagle; Oral; Feed; dose end: 104 week; group: systemic; systemic / clinical chemistry / alanine aminotransferase (alt/sgpt) / alanine aminotransferase (alt/sgpt) + systemic / clinical chemistry / …
rabbit [9] = conditions: Prenatal developmental toxicity study, new zealand white, Oral, Gavage/Intubation, dose end: 19 GD
dog [10] = conditions: Subchronic oral toxicity in nonrodent, beagle, Capsule, dose end: 90 day, group: systemic
rat [11] = conditions: Prenatal developmental toxicity study, sprague dawley, Oral, Gavage/Intubation, dose end: 17 GD
rat [12] = conditions: Subchronic oral toxicity in rodents, sprague dawley, Feed, dose end: 3 month, group: systemic
dog [13] = conditions: Subchronic oral toxicity in nonrodent, beagle, Capsule, dose end: 90 day, group: systemic, systemic / clinical chemistry / alanine aminotransferase (alt/sgpt) / alanine aminotransferase (alt/sgpt) + systemic / clinical chemistry / …
rat [14] = conditions: Combined chronic toxicity/carcinogenicity, wistar, Oral, Water, dose end: 104 week, group: systemic
mouse [15] = conditions: Carcinogenicity, cd1, Oral, Water, dose end: 104 week, group: systemic
rat [16] = conditions: Prenatal developmental toxicity study, wistar, Oral, Gavage/Intubation, dose end: 17 GD
rabbit [17] = conditions: Prenatal developmental toxicity study, new zealand white, Oral, Gavage/Intubation, dose end: 20 GD
dog [18] = conditions: Chronic toxicity, beagle, Oral, Capsule, dose end: 52 week, group: systemic
rat [19] = conditions: Combined chronic toxicity/carcinogenicity; sprague dawley; Inhalation; Whole-Body; dose end: 24 month; group: systemic; systemic / clinical chemistry / alanine aminotransferase (alt/sgpt) / alanine aminotransferase (alt/sgpt) + systemic / clinical chemistry / …
rat [20] = conditions: Subchronic oral toxicity in rodents; sprague dawley; Inhalation; Whole-Body; dose end: 3 month; group: systemic; systemic / clinical chemistry / gamma glutamyl transferase (ggt) / gamma glutamyl transferase (ggt) + systemic / clinical chemistry / …
dog [21] = conditions: Chronic toxicity; beagle; Oral; Feed; dose end: 12 month; group: systemic; systemic / clinical chemistry / alkaline phosphatase (alp/alk) / alkaline phosphatase (alp/alk) + systemic / organ weight / liver / absolute…
mouse [22] = conditions: Subchronic oral toxicity in rodents, cd1, Feed, dose end: 13 week, group: systemic, systemic / organ weight / liver / absolute + systemic / organ weight / liver / relative to body weight + systemic / pathology microscopic / …
mouse [23] = conditions: Carcinogenicity, cd1, Oral, Feed, dose end: 80 week, group: systemic
rat [24] = conditions: Combined chronic toxicity/carcinogenicity, fischer, Oral, Feed, dose end: 24 month, group: systemic
rat [25] = conditions: Subchronic oral toxicity in rodents, fischer, Feed, dose end: 90 day, group: systemic
[26] = systemic / in life observation / body weight / body weight + systemic / in life observation / body weight / body weight gain + systemic / …
[27] = systemic / organ weight / liver / relative to body weight
[28] = group: maternal, reproductive / reproductive performance / estrous cycle / length
[29] = group: systemic, systemic / clinical chemistry / gamma glutamyl transferase (ggt) / gamma glutamyl transferase (ggt) + systemic / in life observation / body …
[30] = group: systemic, systemic / organ weight / liver / absolute + systemic / organ weight / liver / relative to body weight
[31] = systemic / clinical chemistry / alanine aminotransferase (alt/sgpt) / alanine aminotransferase (alt/sgpt) + systemic / clinical chemistry / …
[32] = systemic / hematology / hematocrit (hct) / hematocrit (hct) + systemic / pathology microscopic / nose / degeneration + systemic / clinical …
[33] = group: developmental, developmental / developmental malformation / bone / supernumerary + systemic / in life observation / body weight / fetal weight
[34] = group: maternal, systemic / in life observation / body weight / body weight gain
[35] = systemic / organ weight / liver / absolute + systemic / organ weight / liver / relative to body weight
[36] = group: developmental, developmental / developmental malformation / bone / full supernumerary + developmental / developmental malformation / bone / cervical + …
[37] = group: maternal, systemic / in life observation / body weight / body weight gain + systemic / in life observation / food consumption / food consumption
[38] = group: maternal, systemic / in life observation / body weight / body weight gain + systemic / in life observation / food consumption / food consumption + …
[39] = systemic / hematology / hematocrit (hct) / hematocrit (hct) + systemic / hematology / hemoglobin (hgb) / hemoglobin (hgb)
[40] = systemic / hematology / hematocrit (hct) / hematocrit (hct) + systemic / hematology / hemoglobin (hgb) / hemoglobin (hgb) + systemic / in …
[41] = systemic / clinical chemistry / cholesterol / cholesterol + systemic / clinical chemistry / triglycerides / triglycerides + systemic / …
[42] = systemic / in life observation / food consumption / food consumption + systemic / in life observation / water consumption / water …
[43] = systemic / pathology microscopic / liver / sarcoma + systemic / pathology gross / full gross necropsy / sarcoma
[44] = group: developmental, developmental / developmental malformation / bone / unossified + developmental / developmental malformation / other / other + systemic / in …
[45] = group: developmental, developmental / developmental malformation / bone / enlarge suture + developmental / developmental malformation / bone / incomplete …
[46] = systemic / clinical chemistry / alanine aminotransferase (alt/sgpt) / alanine aminotransferase (alt/sgpt) + systemic / pathology microscopic…
[47] = systemic / clinical chemistry / aspartate aminotransferase (ast/sgot) / aspartate aminotransferase (ast/sgot) + systemic / hematology / …
[48] = systemic / in life observation / body weight / body weight gain + systemic / organ weight / kidney / relative to body weight
[49] = systemic / in life observation / body weight / body weight gain + systemic / organ weight / kidney / relative to body weight + systemic / …
[50] = systemic / in life observation / body weight / body weight gain + systemic / pathology microscopic / liver / hypertrophy + systemic / in …
[51] = systemic / in life observation / body weight / body weight gain + systemic / pathology microscopic / liver / hypertrophy + systemic / organ …

## COc1ccc(C(=O)c2ccccc2)c(O)c1 [2-Hydroxy-4-methoxybenzophenone]
Mouse [1]; [26]
  LOAEL: > 13900 mg/kg/day
  NOAEL: ≥ 13900 mg/kg/day
Mouse [1]; [27]
  LEL: 629 mg/kg/day
  NEL: < 629 mg/kg/day
Mouse [2]
  LEL: 22.5 mg/kg/day
  LOAEL: > 364 mg/kg/day
  NEL: < 22.5 mg/kg/day
  NOAEL: ≥ 364 mg/kg/day
Rat [3]
  LEL: 25 mg/kg/day
  LOAEL: > 200 mg/kg/day
  NEL: 12.5 mg/kg/day
  NOAEL: ≥ 200 mg/kg/day
Rat [4]; [28]
  LEL: 3260 mg/kg/day
  LOAEL: > 3260 mg/kg/day
  NEL: 1600 mg/kg/day
  NOAEL: ≥ 3260 mg/kg/day
Rat [4]; [29]
  LOAEL: > 3260 mg/kg/day
  NOAEL: ≥ 3260 mg/kg/day
Rat [4]; [30]
  LEL: 196 mg/kg/day
  NEL: < 196 mg/kg/day

## CCCC=NO [Butanal oxime]
Rat [5]; [31]
  LOAEL: > 600 mg/kg/day
  NOAEL: ≥ 600 mg/kg/day
Rat [5]; [32]
  LEL: 25 mg/kg/day
  NEL: < 25 mg/kg/day
Mouse [6]
  LEL: 25 mg/kg/day
  LOAEL: > 600 mg/kg/day
  NEL: < 25 mg/kg/day
  NOAEL: ≥ 600 mg/kg/day

## COc1cc(Cl)c(OC)cc1Cl [Chloroneb]
Rat [7]
  LEL: 375 mg/kg/day
  LOAEL: 375 mg/kg/day
  NEL: 25 mg/kg/day
  NOAEL: 25 mg/kg/day
Dog [8]
  LEL: 62.5 mg/kg/day
  LOAEL: 62.5 mg/kg/day
  NEL: 12.5 mg/kg/day
  NOAEL: 12.5 mg/kg/day
Rabbit [9]; [33]
  LEL: 1000 mg/kg/day
  LOAEL: 1000 mg/kg/day
  NEL: 100 mg/kg/day
  NOAEL: 100 mg/kg/day
Rabbit [9]; [34]
  LEL: 1000 mg/kg/day
  LOAEL: 1000 mg/kg/day
  NEL: 100 mg/kg/day
  NOAEL: 100 mg/kg/day

## CC(C)(C)C(O)/C(=C\c1ccc(Cl)cc1Cl)n1cncn1 (stereo not given) [Diniconazole]
Dog [10]; systemic / in life observation / food consumption / food efficiency
  LOAEL: 200 mg/kg/day
Dog [10]; systemic / in life observation / food consumption / food efficiency + systemic / clinical chemistry / alkaline phosphatase (alp/alk) / …
  NOAEL: 40 mg/kg/day
Dog [10]; [35]
  LEL: 40 mg/kg/day
  NEL: < 40 mg/kg/day
Rat [11]; group: developmental, developmental / developmental malformation / bone / full supernumerary + developmental / developmental malformation / bone / cervical
  LOAEL: 20 mg/kg/day
Rat [11]; [36]
  LEL: 20 mg/kg/day
  NEL: 5 mg/kg/day
  NOAEL: 5 mg/kg/day
Rat [11]; [37]
  LEL: 20 mg/kg/day
  LOAEL: 20 mg/kg/day
Rat [11]; [38]
  NEL: 5 mg/kg/day
  NOAEL: 5 mg/kg/day
Rat [12]; [39]
  LOAEL: 0.71 mg/kg/day
  NOAEL: < 0.71 mg/kg/day
Rat [12]; [40]
  LEL: 0.71 mg/kg/day
  NEL: < 0.71 mg/kg/day

## CNC(=S)[S-].[Na+] [Metam-sodium]
Dog [13]
  LEL: 1 mg/kg/day
  LOAEL: 1 mg/kg/day
  NEL: < 1 mg/kg/day
  NOAEL: < 1 mg/kg/day
Rat [14]; [41]
  LOAEL: 12 mg/kg/day
  NOAEL: 3.9 mg/kg/day
Rat [14]; systemic / in life observation / body weight / body weight gain
  LEL: 6.2 mg/kg/day
Rat [14]; systemic / in life observation / body weight / body weight gain + systemic / clinical chemistry / cholesterol / cholesterol + systemic / …
  NEL: 2.3 mg/kg/day
Mouse [15]; [42]
  LOAEL: 6.5 mg/kg/day
  NOAEL: 1.6 mg/kg/day
Mouse [15]; [43]
  LEL: 1.6 mg/kg/day
  NEL: < 1.6 mg/kg/day
Rat [16]; group: developmental, developmental / developmental malformation / bone / unossified + developmental / developmental malformation / other / other
  LOAEL: 20 mg/kg/day
Rat [16]; [44]
  LEL: 20 mg/kg/day
  NEL: 5 mg/kg/day
  NOAEL: 5 mg/kg/day
Rat [16]; [37]
  LOAEL: 20 mg/kg/day
Rat [16]; [38]
  LEL: 20 mg/kg/day
  NEL: 5 mg/kg/day
  NOAEL: 5 mg/kg/day
Rabbit [17]; [45]
  LEL: 20 mg/kg/day
  LOAEL: 20 mg/kg/day
  NEL: 5 mg/kg/day
  NOAEL: 5 mg/kg/day
Rabbit [17]; [38]
  LEL: 20 mg/kg/day
  LOAEL: 20 mg/kg/day
  NEL: 5 mg/kg/day
  NOAEL: 5 mg/kg/day
Dog [18]; [46]
  LOAEL: 1 mg/kg/day
  NOAEL: 0.1 mg/kg/day
Dog [18]; [47]
  LEL: 0.05 mg/kg/day
  NEL: < 0.05 mg/kg/day

## C=CN1CCCC1=O [N-Vinyl-2-pyrrolidone]
Rat [19]
  LEL: 5 ppm
  LOAEL: > 20 ppm
  NEL: < 5 ppm
  NOAEL: ≥ 20 ppm
Rat [20]
  LEL: 45 ppm
  LOAEL: > 45 ppm
  NEL: < 45 ppm
  NOAEL: ≥ 45 ppm

## Fc1ccc(Oc2ccnc3cc(Cl)cc(Cl)c23)cc1 [Quinoxyfen]
Dog [21]
  LEL: 200 mg/kg/day
  LOAEL: 200 mg/kg/day
  NEL: 20 mg/kg/day
  NOAEL: 20 mg/kg/day
Mouse [22]
  LEL: 500 mg/kg/day
  LOAEL: 500 mg/kg/day
  NEL: 100 mg/kg/day
  NOAEL: 100 mg/kg/day
Mouse [23]; systemic / in life observation / body weight / body weight + systemic / in life observation / body weight / body weight gain
  LOAEL: 250 mg/kg/day
Mouse [23]; [26]
  LEL: 250 mg/kg/day
  NEL: 80 mg/kg/day
  NOAEL: 80 mg/kg/day
Rat [24]; [48]
  NEL: 20 mg/kg/day
  NOAEL: 20 mg/kg/day
Rat [24]; [49]
  LEL: 80 mg/kg/day
  LOAEL: 80 mg/kg/day
Rat [25]; [50]
  NEL: 10 mg/kg/day
  NOAEL: 10 mg/kg/day
Rat [25]; [51]
  LEL: 100 mg/kg/day
  LOAEL: 100 mg/kg/day
